From patent publication US9241916B2, “Cognitive performance with sirtuin activators” (President and Fellows of Harvard College, priority 2005, dated 2016)
Entries after “also recorded” stand apart in the source; their conditions may differ.

Tests used:
[1] = test system: mice; assay: Ethanol-induced impairment of context-dependent fear conditioning; assay type: in vivo
From the text: (§1) The principle of Pavlovian fear conditioning is as follows. During the training procedure mice are exposed to a novel context (context 1), consisting of an observation chamber with defined lightning, odor, background noise and geometry. After exploring this novel environment for 180 s the animals are exposed to a tone for 30 s followed by a mild electric foot shock for 2 s. On the basis of associative learning mice display aversive freezing behavior during a memory test consisting of re-expose to the conditioning context 24 h after the training. […] Tone-dependent fear memories can be analyzed by presenting the tone in context 2. Freezing is an inborn behavior that rodents express in threatening situations. It is defined as the complete absence of movement, except respiration and heartbeat. […] Therefore, freezing behavior is commonly used to quantify the amount of learning.

[2] = test system: mice; assay: Context- and tone-dependent fear conditioning, intra-hippocampal (i.h.) injection; assay type: in vivo; conditions: vs. vehicle
From the text: The principle of Pavlovian fear conditioning is as follows. During the training procedure mice are exposed to a novel context (context 1), consisting of an observation chamber with defined lightning, odor, background noise and geometry. After exploring this novel environment for 180 s the animals are exposed to a tone for 30 s followed by a mild electric foot shock for 2 s. On the basis of associative learning mice display aversive freezing behavior during a memory test consisting of re-expose to the conditioning context 24 h after the training. […] Tone-dependent fear memories can be analyzed by presenting the tone in context 2. Freezing is an inborn behavior that rodents express in threatening situations. It is defined as the complete absence of movement, except respiration and heartbeat. Whereas mice display no freezing behavior during training, a significant increase of freezing behavior is observed upon re-exposure to the conditioned context only. Therefore, freezing behavior is commonly used to quantify the amount of learning. Context-dependent fear conditioning requires the hippocampus whereas tone-dependent fear conditioning relies on an intact amygdala (Kim and Fanselow, 1992).

[3] = test system: C57BL/6J mice; assay: Context- and tone-dependent Pavlovian fear conditioning, icv. injection; assay type: in vivo; conditions: vs. vehicle
From the text: A fundamental type of learning is associative learning that can be analyzed in rodents using the pavlovian fear conditioning paradigm (Fendt and Fanselow, 1999; Fischer et al., 2003). As fear conditioning is a robust and commonly used method to analyze learning and allows to delineate the involvement of distinct brain structures in the learning process, we choose this paradigm to investigate the effect of reveratrol on learning. The principle of Pavlovian fear conditioning is as follows. During the training procedure mice are exposed to a novel context (context 1), consisting of an observation chamber with defined lightning, odor, background noise and geometry. After exploring this novel environment for 180 s the animals are exposed to a tone for 30 s followed by a mild electric foot shock for 2 s. On the basis of associative learning mice display aversive freezing behavior during a memory test consisting of re-expose to the conditioning context 24 h after the training. […] Tone-dependent fear memories can be analyzed by presenting the tone in context 2. Freezing is an inborn behavior that rodents express in threatening situations. It is defined as the complete absence of movement, except respiration and heartbeat. Whereas mice display no freezing behavior during training, a significant increase of freezing behavior is observed upon re-exposure to the conditioned context only. Therefore, freezing behavior is commonly used to quantify the amount of learning. C57BL/6J mice were anesthetized and microcannula (PlasticOne; AP −0 mm, lateral 1 mm, depth 2 mm) were implanted into the lateral brain ventricles (icv). […] The animals were trained by context- and tone-dependent fear conditioning 24 h after the last icv. injection and memory retention was analyzed the following day (see FIG. 1A). […] The mice were tested for memory retention 24 h later by re-exposure to the conditioning context.

[4] = test system: CK-p25 mice; assay: p25-mediated cognitive decline, fear conditioning in CK-p25 mice; assay type: in vivo; conditions: p25 induced for 5 weeks, icv. 5 μg/mouse 2-3×/week, vs. vehicle
From the text: as §1

[5] = molecular target: T1, Sirt1 deacetylase (Homo sapiens, UniProt Q96EB6); conditions: Howitz et al., 2003; Wood et al., 2004; cited from earlier work
T1 sequence (Q96EB6 1-747): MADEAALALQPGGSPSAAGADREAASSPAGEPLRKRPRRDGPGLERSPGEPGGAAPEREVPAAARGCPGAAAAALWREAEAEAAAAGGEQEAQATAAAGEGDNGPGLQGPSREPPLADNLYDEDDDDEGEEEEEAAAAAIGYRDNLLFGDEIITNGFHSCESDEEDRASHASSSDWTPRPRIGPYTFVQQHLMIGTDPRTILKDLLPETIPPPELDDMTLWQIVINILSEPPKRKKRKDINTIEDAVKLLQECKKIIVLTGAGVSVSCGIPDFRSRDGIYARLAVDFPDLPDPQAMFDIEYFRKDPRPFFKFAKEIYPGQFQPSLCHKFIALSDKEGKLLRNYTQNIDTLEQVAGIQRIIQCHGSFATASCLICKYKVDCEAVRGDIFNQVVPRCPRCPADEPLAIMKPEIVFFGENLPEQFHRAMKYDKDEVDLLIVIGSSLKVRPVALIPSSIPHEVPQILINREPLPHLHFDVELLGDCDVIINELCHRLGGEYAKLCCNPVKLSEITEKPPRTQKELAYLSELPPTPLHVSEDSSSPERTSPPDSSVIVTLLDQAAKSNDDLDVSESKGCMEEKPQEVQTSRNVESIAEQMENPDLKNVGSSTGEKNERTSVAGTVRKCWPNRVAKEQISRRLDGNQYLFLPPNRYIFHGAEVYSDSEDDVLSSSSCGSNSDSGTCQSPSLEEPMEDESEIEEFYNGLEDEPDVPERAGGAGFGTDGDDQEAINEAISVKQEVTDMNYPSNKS

[6] = icv. 5 μg/mouse for 7 consecutive days, training 24 h after last injection, memory test the following day
[7] = single icv. injection 5 μg/mouse immediately after training, test 24 h later

| SMILES | freezing behavior during the context-dependent memory test (impairment by ethanol) ([1]; ip. 33% ethanol/PBS immediately after training) | freezing behavior during the context-dependent memory test (prevention of ethanol-induced impairment) ([1]; ip. 30 mg/kg resveratrol in 33% ethanol/PBS immediately after training, compared with PBS and ethanol groups, 30 mg/kg) | freezing behavior during the context-dependent memory test ([2]; i.h. 5 μg/mouse 4 h after the training) | freezing during the tone-dependent memory test ([2]; i.h. 5 μg/mouse immediately or 4 h after the training) | freezing behavior during the context-dependent memory test [3, 6] | freezing behavior during the tone-dependent memory test [3, 6] | freezing behavior during the context-dependent memory test [3, 7] | freezing behavior during the tone-dependent memory test [3, 7] | freezing behavior, memory retention 24 h after fear conditioning [4] | agonism of the Sirt1 deacetylase [5] |
| --- | --- | --- | --- | --- | --- | --- | --- | --- | --- | --- |
| CCO [ethanol] | impaired freezing behavior; also recorded: severe impaired freezing |  |  |  |  |  |  |  |  |  |
| Oc1ccc(C=Cc2cc(O)cc(O)c2)cc1 [resveratrol, 3,5,4′-tri-hydroxystilbene] |  | performed indistinguishable to mice injected only with PBS; also recorded: attenuated this effect | significantly enhanced freezing behavior | not different among groups | significantly increased freezing behavior | significantly increased freezing behavior | significantly increased freezing behavior; also recorded: significantly enhanced freezing | significantly increased freezing behavior | significantly enhanced | potent agonist |
